Reference: US5908842A, “Substituted 2-acylamino-pyridines as inhibitors of nitric oxide synthase” (Merck & Co., Inc., priority 1997, dated 1999)

Biological target: Human Inducible Nitric Oxide Synthase (Homo sapiens, UniProt P35228)
Test: Inhibition of human inducible nitric oxide synthase (formation of L-[3H]citrulline from L-[3H]arginine)
Type: biochemical
Details: 1 μM L-Arg, pH 7.5, room temperature, 30 minutes; for inhibition at 50 µM: 50 μM inhibitor
Description: J Lowenstein and S. H. Snyder in Methods in Enzymology, Vol. 233, L. Packer, ed., Academic Press, NY, 1994, Ch.26, pp. 264-269.
Various assays for NOS activity have been reported in the literature and are reviewed in the following: M. E. Murphy and E. Noack in Methods in Enzymology, Vol. 233, L. Packer, ed., Academic Press, NY, 1994, Ch.26, pp. 240-250 and J. M. Hevel and M. A. Marletta in Methods in Enzymology, Vol. 233, L. Packer, ed., Academic Press, NY, 1994, Ch.26, pp. 250-258. Details for the assay protocols to measure NOS activity are as follows:
NOS activity is measured as the formation of L-[2,3,4,5-^3 H]Citrullinefrom L-[2,3,4,5-^3 H]Arginine. The incubation buffer (100 μL) contained; 100 mM TES, pH 7.5, 5 μM FAD, 5 μM FMN, 10 μM BH4, 0.5 mM NADPH, 0.5 mM DTT, 0.5 mg/mL BSA, 2 mM CaCl2, 10 μg/mL calmodulin (bovine), 1 μM L-Arg, 0.2 μCi L-[2,3,4,5-^3 H]Arg, and the inhibitor in aqueous DMSO (max. 5 %). The reaction is initiated by addition of enzyme. Incubations are performed at room temperature for 30 minutes and stopped by the addition of an equal volume of quenching buffer consisting of 200 mM sodium citrate, pH 2.2, 0.02% sodium azide. Reaction products are separated by passing through a cation exchange resin and quantitated as cpm by scintillation counting. Percent inhibition is calculated relative to enzyme incubated without inhibitor according to: % inhibition =[…](cpm L-[2,3,4,5-^3 H]Cit with inhibitor/cpm L-[2,3,4,5-^3 H]Cit without inhibitor).

Row | IC50 [µM] | inhibition at 50 µM [%] | SMILES
1 | < 50 | 54 | Cc1ccc(NC(=O)Nc2cc(C)ccn2)cc1 [Example 1, N-(2-(4-Methylpyridyl))-N'-(4-methylphenyl)-urea]
2 | < 50 | 63 | Cc1ccnc(NC(N)=S)c1 [Example 2, N-(2-(4-Methylpyridyl))-thiourea]
3 | < 50 | 75 | Cc1cc(C)nc(NC(N)=S)c1 [Example 3, N-(2-(4,6-dimethylpyridyl))-thiourea]
4 | < 10 | 86 | C=CCNC(=S)Nc1ccc(C(F)(F)F)cn1 [Example 4, N-(2-(5-trifluoromethylpyridyl))-N'-allyl-thiourea]
5 | < 50 | 51 | C=CCNC(=S)Nc1cc(C)cc(C)n1 [Example 5, N-(2-(4,6-dimethylpyridyl))-N'-allyl-thiourea]
6 | < 1 | 100 | Cc1ccnc(NC(=S)NC(C)C)c1 [Example 6, N-(2-(4-Methylpyridyl))-N'-isopropyl-thiourea]
7 | < 10 |  | CCNC(=S)Nc1cc(C)ccn1 [Example 7, N-(2-(4-Methylpyridyl))-N'-ethyl-thiourea]
8 |  | 50 | Cc1ccnc(NC(=S)Nc2ccccc2)c1 [Example 8, N-(2-(4-Methylpyridyl))-N'-phenyl-thiourea]
9 | < 50 | 55 | S=C(Nc1ccc(Br)cc1)Nc1ccccn1 [Example 9, N-(2-Pyridyl)-N'-(4-bromophenyl)-thiourea]
10 |  | 54 | Cc1ccnc(NC(=S)Nc2cccc3ccccc23)c1 [Example 10, N-(2-(4-Methylpyridyl))-N'-(1-naphthyl)-thiourea]
11 | < 50 | 70 | Cc1ccnc(NC(=S)Nc2cccc(F)c2)c1 [Example 11, N-(2-(4-Methylpyridyl))-N'-(3-fluorophenyl)-thiourea]
12 | < 50 | 76 | Cc1ccnc(NC(=S)NCc2ccccc2)c1 [Example 12]
13 | < 50 | 57 | Cc1ccnc(NC(=S)NC2CC(C)CC(C)(C)C2)c1 (stereo not shown) [Example 13, N-(2-(4-Methylpyridyl))-N'-(3,3,,5-trimethylcyclohexyl)-thiourea]
14 | < 10 | 96 | Cc1ccnc(NC(=O)NC(=O)c2ccccc2)c1 [Example 14, N-(2-(4-Methylpyridyl))-N'-benzoyl-urea]
15 | < 10 | 85 | Cc1ccnc(NC(=S)NCCC[C@H](N)C(=O)O)c1 [Example 15, N-(2-(4-Methylpyridyl))-N'-(((S)-4-amino-4-carboxy)-n-butyl)-thiourea]
16 | < 10 | 55 | CCN(CC)S(=O)(=O)NC(=O)Nc1ccccn1 [Example 16, N-(2-Pyridyl)-N'-(diethylaminosulfonyl)-urea]
17 | < 10 |  | CCN(CC)S(=O)(=O)NC(=O)Nc1ncccc1C [Example 17]
18 | < 1 | 92 | CCN(CC)S(=O)(=O)NC(=O)Nc1cc(C)ccn1 [Example 18]
19 | < 50 |  | CCN(CC)S(=O)(=O)NC(=O)Nc1ccc(C)cn1 [Example 19]
20 | < 1 |  | CCN(CC)S(=O)(=O)N(C)C(=O)Nc1cc(C)ccn1 [Example 20]
21 | < 1 |  | COC(=O)C(=O)Nc1cc(C)ccn1 [Example 21, Oxalamide, N-(4-methyl-2-pyridyl), methyl ester]
22 | > 50 | 57 | COC(=O)CC(=O)Nc1cc(C)ccn1 [Example 22, Malonamide, N-(4-methyl-2-pyridyl), methyl ester]
